Test: Kinetic constant for the transformation of vitamin D to Previtamin D (kl / k-1)

| Compound | Keq |
| --- | --- |
| C=C1CCCC/C1=C/C=C1\CCC[C@]2(C)C([C@H](C)CCCC(C)C)CC[C@@H]12 (stereo not given in full) | 3.06 |
| C=C1/C(=C\C=C2/CCC[C@]3(C)C([C@H](C)C[C@H](O)CC(O)(C(F)(F)F)C(F)(F)F)CC[C@@H]23)C[C@@H](O)C[C@@H]1O (stereo not given in full) | 5.46 |
| C=C1/C(=C\C=C2/CCC[C@]3(C)[C@@H]([C@H](C)CCCC(C)C)CC[C@@H]23)C[C@@H](O)C[C@@H]1O | 5.18 |
| C=C1CC[C@H](O)C/C1=C/C=C1\CCC[C@]2(C)[C@@H]([C@H](C)CCCC(C)C)CC[C@@H]12 | 3.71 |
| C=C1/C(=C\C=C2/CCC[C@]3(C)C([C@H](C)CCCC(O)(C(F)(F)F)C(F)(F)F)CC[C@@H]23)C[C@@H](O)C[C@@H]1O (stereo not given in full) | 5.1 |

Source: ChEMBL document CHEMBL1151019, “Kinetics of thermal [1,7a]-sigmatropic shift of hexafluoro vitamin D3 and vitamin D3 derivatives. Evaluation of conformations of the A ring affected by 1-OH and 3-OH groups” (Bioorg Med Chem Lett, 1996)
